In patent publication US5945436A, “Pyridylmethyl nitriles, amides and thioamides useful as fungicides” (Uniroyal Chemical Company, Inc., priority 1997, dated 1999):

Legend:
Colletotrichum gossypii = assay: Fungal growth inhibition, treated disc on agar (COL GOS); format: cell-based; conditions: Colletotrichum gossypii, disc dipped in 500 mg/l, 29° C., read-out: Percent Growth Inhibition, COL GOS
Procedure: (§1) The treated and untreated discs were then placed on agar plates and one of the following fungus species: Septoria nodorum (SEP NOD), Botrytis cinerea (BOT CIN), Fusarium oxysporum (FUS OXY), Pythium ultimum (PYT ULT), Rhizoctonia solani (RHI SOL), Colletotrichum gossypii (COL GOS), and Scierotinia minor (SCL MIN), was added to the center of each disc in the form of a culture plug with the fungus mat in contact with the paper of the test disc. Cercosporidium personatum (CER PER), was added to discs as a spore suspension (20,000 spores/ml) to the disc (two drops of spore suspension per disc), rather than a mycelial culture plug. The plates were then incubated at 29° C. in an oven.
(§2) With the exception of the discs containing Cercosporidium personatum, the discs were evaluated by first measuring the radius from the center of the fungus colony on the treated discs and on the untreated discs. Percent growth inhibition of each of the compounds tested was determined as a function of the difference between the radius of the fungus colony on the treated disc versus the radius of the fungus colony on the untreated disc.

Erysiphe cichoracearum = assay: Powdery mildew of cucumber, systemic root uptake (CMS); format: in vivo; conditions: 45 ml of 250 mg/l, 8 days after inoculation
Procedure: Compositions containing Compounds Nos. 1-81 were prepared by dissolving 0.24 grams of each of the compounds in 8 ml of acetone or other suitable inert solvent. Each of the resultant solutions was treated with 3 drops of TWEEN 20 (ethoxylated ethylene sorbitan monolaurate, a non-ionic surfactant)(I.C.I.), and water was added to form an emulsion. The degree of dilution with water was dictated by the desired concentration of the compound in the composition. The greater the quantity of water added, the lower the concentration of the compound in the composition, reported in milligrams per liter (mg/l) […] Upon reaching these ages, the plants were either treated with 45 ml of 250 mg/l concentration of the compositions of Example 9 or were left untreated. The untreated plants were used as controls. The 45 ml compositions saturated the soil of the treated pots without significant loss through drainage into the saucers below the pots. Twenty-four hours after the treatment with the compositions, both the barley and cucumber plants in all the pots, those treated and those untreated, were inoculated with powdery mildew fungus. This was accomplished by tapping leaves of previously infected barley and cucumber plants over the treated and untreated pots containing the barley and cucumber plants, respectively, to distribute spores of the fungus over the plants tested. […] Intermediate ratings were assigned depending on the degree of disease. […] The results of the powdery mildew disease control of barley are reported under the heading of "BMS". The results for cucumber mildew control are reported under the heading "CMS".

Botrytis cinerea = assay: Fungal growth inhibition, treated disc on agar (BOT CIN); format: cell-based; conditions: Botrytis cinerea, disc dipped in 500 mg/l, 29° C., read-out: Percent Growth Inhibition, BOT CIN
[1] = test system: Cercosporidium personatum; assay: Fungal germination and growth, treated disc on agar, scored (CER PER); format: cell-based; design: key: 100: Complete inhibition of germination and growth.; 80: Nearly complete inhibition but some growth.; 50: Partial inhibition of growth or, early complete inhibition but later growth begins.; 20: Some inhibition of growth, but not significant.; 0: No inhibition of growth; conditions: disc dipped in 500 mg/l, 29° C., numerical score 0-100, spore suspension
Text: Filter paper discs, each 11 mm. in diameter, were dipped in each of the test solutions. The discs were allowed to air dry to drive off the acetone solvent. A number of untreated discs were used as controls. The treated and untreated discs were then placed on agar plates and one of the following fungus species: Septoria nodorum (SEP NOD), Botrytis cinerea (BOT CIN), Fusarium oxysporum (FUS OXY), Pythium ultimum ([…]), Rhizoctonia solani (RHI SOL), Colletotrichum gossypii (COL GOS), and Scierotinia minor (SCL MIN), was added to the center of each disc in the form of a culture plug with the fungus mat in contact with the paper of the test disc. Cercosporidium personatum (CER PER), was added to discs as a spore suspension (20,000 spores/ml) to the disc (two drops of spore suspension per disc), rather than a mycelial culture plug. The plates were then incubated at 29° C. in an oven. In the case of the Cercosporidium personatum (CER PER) fungi, scoring was done on a numerical basis as follows: 100=Complete inhibition of germination and growth. 80=Nearly complete inhibition but some growth. 50=Partial inhibition of growth or, early complete inhibition but later growth begins. 20=Some inhibition of growth, but not significant. 0=No inhibition of growth. The results of all the above tests appear in Table III below under the headings "SEP NOD," "BOT CIN," "FUS OXY," "[…]" "COL GOS" and "CER PER".

Erysiphe polygoni = assay: Powdery mildew on pinto bean, foliar application (ERY POL); format: in vivo; conditions: Erysiphe polygoni, similar procedure as barley (1,000 mg/l), read-out: Percent Reduction of Disease, ERY POL
Procedure: Compositions containing Compounds Nos. 1-81 were prepared by dissolving 0.24 grams of each of the compounds in 8 ml of acetone or other suitable inert solvent. Each of the resultant solutions was treated with 3 drops of TWEEN 20 (ethoxylated ethylene sorbitan monolaurate, a non-ionic surfactant)(I.C.I.), and water was added to form an emulsion. The degree of dilution with water was dictated by the desired concentration of the compound in the composition. The greater the quantity of water added, the lower the concentration of the compound in the composition, reported in milligrams per liter (mg/l) Ten plants of "Robust" variety barley were planted in each of a plurality of pots. Each pot was then either sprayed with one of the compositions of Example 9, at a composition concentration of 1,000 mg/l, or left unsprayed. For each pot sprayed, one pot was left unsprayed as a control. After the leaves of the sprayed pots were dried, the sprayed pots and the unsprayed control pots were placed in a greenhouse maintained at 21° C. All the pots were then inoculated with barley powdery mildew fungus, Erysiphe graminis. This inoculation was accomplished by distributing spores of the fungus over the leaves of the plants to be tested from plants which had previously been infected with the mildew disease. […] Again, percent control was computed by comparing the treatment scores with the scores of the untreated controls. The results are summarized in Table II under the heading "ERY GRA". Using a similar procedure as described above for the barley, pinto bean plants were prepared, treated and inoculated with the fungus Erysiphe polygoni. The results of this testing are summarized in Table II under the heading "ERY POL".

Septoria nodorum = assay: Fungal growth inhibition, treated disc on agar (SEP NOD); format: cell-based; conditions: Parastagonospora nodorum, disc dipped in 500 mg/l, 29° C., read-out: Percent Growth Inhibition, SEP NOD
Procedure: as §1, §2

| Compound | inhibition at 500 µg/mL (Colletotrichum gossypii) [%] | Percent Reduction of Disease, CMS (Erysiphe cichoracearum) [%] | inhibition at 500 µg/mL (Botrytis cinerea) [%] | CER PER inhibition score [1] | pest or weed control at 1000 µg/mL (Erysiphe polygoni) [%] | inhibition at 500 µg/mL (Septoria nodorum) [%] |
| --- | --- | --- | --- | --- | --- | --- |
| N#CC(CCc1ccccc1)(CCc1ccccc1)c1cccnc1 [A, reference compound] | 25 | 50 | 0 | 0 | 15 | 0 |
| CC(C)(C)c1ccc(CC(C#N)(Cc2ccc(C(C)(C)C)cc2)c2cccnc2)cc1 [B, reference compound] | 0 | 50 | 0 | 0 | 0 | 10 |
| CCCC(C#N)(CCc1ccccc1)c1cccnc1 (stereo not drawn) [Compound 1] | 100 | 0 | 5 | 100 | 95 | 0 |
| CCCCCCCC(C#N)(CCc1ccccc1)c1cccnc1 (stereo not drawn) [Compound 2] | 60 | 0 | 60 | 100 | 100 | 0 |
| CCCCCC(C#N)(CCc1ccccc1)c1cccnc1 (stereo not drawn) [Compound 3] | 97 | 35 | 100 | 100 | 100 | 86 |
| C#CCC(C#N)(CCc1ccccc1)c1cccnc1 (stereo not drawn) [Compound 4] | 100 | 20 | 94 | 100 | 90 | 92 |
| C=CCC(C#N)(CCc1ccccc1)c1cccnc1 (stereo not drawn) [Compound 5] | 97 | 88 | 100 | 0 | 90 | 50 |
| COCC(C#N)(CCc1ccccc1)c1cccnc1 (stereo not drawn) [Compound 6] | 95 | 100 | 100 | 0 | 100 | 0 |
| CC(C)CC(C#N)(CCc1ccccc1)c1cccnc1 (stereo not drawn) [Compound 7] | 89 | 20 | 100 | 0 | 100 | 5 |
| CC(C)=CCC(C#N)(CCc1ccccc1)c1cccnc1 (stereo not drawn) [Compound 8] | 95 | 0 | 40 | 80 | 99 | 25 |
| C=CCC(C#N)(CCc1ccc(F)cc1)c1cccnc1 (stereo not drawn) [Compound 9, 4-fluoro-α-(2-propenyl)-α-(3-pyridinyl)benzenebutanenitrile] | 100 | 74 | 100 | 100 | 99 | 30 |
| CCCC(C#N)(CCc1ccc(F)cc1)c1cccnc1 (stereo not drawn) [Compound 10] | 97 | 88 | 98 | 100 | 99 | 80 |
| CCCCC(C#N)(CCc1ccc(F)cc1)c1cccnc1 (stereo not drawn) [Compound 11] | 100 | 39 | 100 | 0 | 100 | 60 |
| CCCC(C#N)(CCCc1ccc(Cl)cc1)c1cccnc1 (stereo not drawn) [Compound 12] | 93 | 40 | 98 | 100 | 95 | 70 |
| CCCCC(C#N)(CCCc1ccc(Cl)cc1)c1cccnc1 (stereo not drawn) [Compound 13] | 93 | 0 | 98 | 0 | 100 | 75 |
| CCCC(C#N)(Cc1ccc(C(C)(C)C)cc1)c1cccnc1 (stereo not drawn) [Compound 14] | 5 | 84 | 15 | 0 | 100 | 0 |
| CCCC(C#N)(CCCc1ccccc1Cl)c1cccnc1 (stereo not drawn) [Compound 15, 2-chloro-α-propyl-(3-pyridinyl)benzene pentanenitrile] | 93 | 96 | 30 | 100 | 100 | 93 |
| CCCCCCC(C#N)(Cc1ccc(C(C)(C)C)cc1)c1cccnc1 (stereo not drawn) [Compound 16] | 42 | 0 | 20 | 0 | 100 | 45 |
| CCCC(C#N)(Cc1ccc(Oc2ccccc2)cc1)c1cccnc1 (stereo not drawn) [Compound 17] | 20 | 100 | 5 | 0 | 100 | 55 |
| C=CCC(C#N)(Cc1ccc(C(C)(C)C)cc1)c1cccnc1 (stereo not drawn) [Compound 18] | 10 | 20 | 10 | 0 | 100 | 5 |
| CCCCC(C#N)(Cc1ccc(C(C)(C)C)cc1)c1cccnc1 (stereo not drawn) [Compound 19] | 91 | 0 | 40 | 100 | 100 | 96 |
| CCCC(C#N)(CCc1ccccc1)c1ccncc1 (stereo not drawn) [Compound 25] | 72 | 17 | 55 | 0 | 17 | 19 |
